According to ChEMBL document CHEMBL1121379, “Some short-chain N6-substituted adenosine analogues with antitumor properties” (1980):
Where “and” joins values, the source holds several entries; their conditions need not be identical. Equal entries are not always repeated.

How the values were obtained:
Format in all cases: functional
Mus musculus [1] = species: Mus musculus; assay: Concentration required for 50% growth inhibition of the following cell lines mouse fibro blasts; conditions: read-out: ID50 (the source's name)
MCF7 = assay: Concentration required for 50% growth inhibition of human breast tumor cells MCF-7 human breast carcinoma cells; conditions: read-out: ID50 (the source's name)
[2] = Concentration required for 50% growth inhibition of human breast tumor cells SW-613 human breast adenocarcinoma cells; conditions: SW613, read-out: ID50 (the source's name)
[3] = Concentration required for 50% growth inhibition of the following cell lines sarcoma S-180 cells; conditions: Mus musculus, read-out: ID50 (the source's name)
Mus musculus [4] = assay: Antitumor activity against mouse leukemia, L-1210(DBA/2 Ha Mice) mean life span ( days) of the mouse after the dosage at 1.56 mg/kg of dose per day
L1210 = assay: Concentration required for 50% growth inhibition of the following cell lines Leukemia L-1210 cells; conditions: Mus musculus, read-out: ID50 (the source's name)
Burkitts lymphoma cell = assay: Concentration required for 50% growth inhibition of the following cell lines human burkitt lymphoma cells; conditions: read-out: ID50 (the source's name)
Mus musculus [5] = assay: Antitumor activity against slow growing spontaneous mammary tumors in the DBA/2 Ha-DD mouse % increased in life span 3.8 mg/kg/day x 5 melphalan + 50 mg/kg/day compound
[6] = Concentration required for 50% growth inhibition of the following cell lines Carcinoma TA-3 cells; conditions: Mus musculus, TA3; read-out: ID50 (the source's name)
[7] = Concentration required for 50% growth inhibition of the following cell lines human fibro blast cells; conditions: read-out: ID50 (the source's name)
[8] = Concentration required for 50% growth inhibition of the following cell lines human bladder carcinoma cells; conditions: read-out: ID50 (the source's name)
Mus musculus [9] = assay: Antitumor activity against slow growing spontaneous mammary tumors in the DBA/2 Ha-DD mouse number of days reacquired fro tumor growth 3.8 mg/kg/day x 5 melphalan once in 5 days; parameters: unit: days
Mus musculus [10] = assay: Antitumor activity against slow growing spontaneous mammary tumors in the DBA/2 Ha-DD mouse mean life span in days at 50 mg/kg give 5 times once in 5 days
Mus musculus [11] = assay: Antitumor activity against mouse leukemia, L-1210(DBA/2 Ha Mice) % increase in life span at 3.12 mg/kg of dose per day; conditions: for ILS at 3.12 mg/kg: Mus musculus, L1210, dose 3.12 mg/kg
HeLa = assay: Concentration required for 50% growth inhibition of the following cell lines Hela cells; conditions: Homo sapiens, read-out: ID50 (the source's name)
Mus musculus [12] = assay: Antitumor activity against mouse leukemia, L-1210(DBA/2 Ha Mice) mean life span (days) of the mouse after fractionated dosage(dose divided in two halves and administered in two daily injections) at 6.25 mg/kg of dose per day
Mus musculus [13] = assay: Antitumor activity against slow growing spontaneous mammary tumors in the DBA/2 Ha-DD mouse % increased in life span 3.8 mg/kg/day x 5 melphalan + 50 mg/kg/day
Mus musculus [14] = assay: antitumor activity against mouse leukemia, L-1210(DBA/2 Ha Mice) % increase in life span at 3.12 mg/kg of dose per day; conditions: L1210, dose 3.12 mg/kg

With CC(C)Nc1ncnc2c1ncn2[C@@H]1O[C@H](CO)[C@@H](O)[C@H]1O the IC50 (Mus musculus [1]) was 20 µM, the IC50 (MCF7) was 6.3 µM and the IC50 [2] was 150 µM. It also gave an IC50 [3] of 30 µM, a Life span (Mus musculus [4]) of 7.3 and an IC50 (L1210) of 19 µM. For the same compound, the IC50 (Burkitts lymphoma cell) was 27 µM, the ILS (Mus musculus [5]) was 25.5% and 60% and 63.1% and the IC50 [6] was 13 µM. For the same compound, the IC50 [7] was 6.5 µM, the IC50 [8] was 11 µM and the Tumor half growth (Mus musculus [9]) was 17 and 24. For the same compound, the Life span (Mus musculus [10]; 50 mg/kg) was 63.3 and 54.8 and 23.6 and the ILS (Mus musculus [11]; dose 3.12 mg/kg) was 14.7% and 17.4% and 37.4%.

With C#CCNc1ncnc2c1ncn2C1O[C@H](CO)[C@@H](O)[C@H]1O (stereo partly drawn) the IC50 (Mus musculus [1]) was 3.1 µM, the IC50 (MCF7) was 1.6 µM and the Life span (Mus musculus [4]) was 8.2. For the same compound, the IC50 (L1210) was 1 µM, the IC50 (Burkitts lymphoma cell) was 8.3 µM and the ILS (Mus musculus [5]) was 60%. The IC50 [6] was 2.5 µM, the IC50 [7] was 2.8 µM and the IC50 [8] was 3.8 µM. The Tumor half growth (Mus musculus [9]) was 18, the ILS at 3.12 mg/kg (Mus musculus [11]) was 20% and the IC50 (HeLa) was 3.5 µM.

Compound OC[C@H]1O[C@@H](n2cnc3c(NCc4ccccc4)ncnc32)[C@H](O)[C@@H]1O [N6-BENZYLADENOSINE] has a Life span (Mus musculus [12]) of 38.8, an IC50 (MCF7) of 22 µM and an IC50 [2] of 4 µM. The IC50 [3] was 45 µM, the Life span (Mus musculus [4]) was 9.7 and the IC50 (L1210) was 8.5 µM. For the same compound, the IC50 (Burkitts lymphoma cell) was 11 µM, the ILS (Mus musculus [5]) was 10.9% and 26% and the IC50 [6] was 14 µM. The Tumor half growth (Mus musculus [9]) was 20 and 21, the Life span (Mus musculus [10]) was 62.6 and the ILS at 3.12 mg/kg (Mus musculus [11]) was 41%.

Compound C=CCNc1ncnc2c1ncn2[C@@H]1O[C@H](CO)[C@@H](O)[C@H]1O has an IC50 (Mus musculus [1]) of 14 µM, an IC50 (MCF7) of 1.4 µM and an IC50 [2] of 50 µM. The IC50 [3] was 20 µM, the Life span (Mus musculus [4]; 1.56 mg/kg) was 8.3 and 10 and the IC50 (L1210) was 12 µM. For the same compound, the IC50 (Burkitts lymphoma cell) was 2.3 µM, the ILS (Mus musculus [5]) was 82.5% and 38.7% and the IC50 [6] was 3 µM. The IC50 [7] was 2.7 µM, the ILS (Mus musculus [13]) was 42.8% and the ILS at 3.12 mg/kg (Mus musculus [14]) was 8%. The IC50 [8] was 7.5 µM, the Tumor half growth (Mus musculus [9]) was 16 and 26 and 30 and the Life span (Mus musculus [10]; 50 mg/kg) was 46.6 and 48.

C=C(C)CNc1ncnc2c1ncn2C1O[C@H](CO)[C@@H](O)[C@H]1O (stereo partly drawn) gave an IC50 (Mus musculus [1]) of 25 µM, an IC50 [2] of 4 µM and a Life span (Mus musculus [4]) of 30. It also gave an IC50 (L1210) of 19 µM, an IC50 (Burkitts lymphoma cell) of 11 µM and an ILS (Mus musculus [5]) of 19%. For the same compound, the IC50 [6] was 18 µM, the IC50 [7] was 1.5 µM and the IC50 [8] was 9 µM. The Tumor half growth (Mus musculus [9]) was 15.
